# Data taken from article PMC7999550, “Novel Multifunctional Ascorbic Triazole Derivatives for Amyloidogenic Pathway Inhibition, Anti-Inflammation, and Neuroprotection” (Molecules, 2021).
# Experiments:
# BACE1 = molecular target: T1, BACE1 (Homo sapiens, UniProt P56817); assay: β-Secretase (BACE1) inhibition assay (FRET); assay type: biochemical; details: for inhibition at 400 µM: at a concentration of 400 µM, mean ± SEM, n = 3
# T1 construct: purchased Sino Biological, Beijing, China
# Procedure: All ascorbic derivatives (2a–2c and 5a–5c), at a concentration of 400 µM, were evaluated for β-secretase inhibitory activities by using the FRET assay. Briefly, the reaction composing 30 µL of 0.01 unit/µL BACE1 enzyme stock solution, 20 µL of 5% DMSO of test compound, 30 µL of sodium acetate buffer (pH 4.5), and 20 µL of 125 µM β-secretase substrate IV (Calbiochem®, San Diego, CA, USA) was incubated at 37 °C for 30 min. Fluorescence was then measured at Ex = 380 nm and Em = 510 nm using a SpectraMax Gemini EM™, San Jose, CA, USA [26, 61]. β-secretase inhibitor I (Anaspec®, Fremont, CA, USA) was used as a positive control, at a concentration of 100 µM. The experiments were performed in triplicate. For the compounds exerting inhibitory activities more than 20%, an IC50 value was further determined.
# amyloid-β (1-42) peptide = molecular target: T2, amyloid-β (1-42) peptide (Homo sapiens, UniProt P05067); assay: Amyloid aggregation inhibition assay (ThT); assay type: biochemical; details: for inhibition at 400 µM: at a concentration of 400 µM, ThT, 48 h
# T2 construct: 9 µL of 25 μM working solution of amyloid-β (1-42) peptide; purchased Anaspec, Fremont, CA, USA
# Procedure: The ascorbic derivatives ware evaluated for activities of amyloid β aggregation inhibition at a concentration of 400 µM. Briefly, in each well of transparent plate, 9 µL of 25 μM working solution of amyloid-β (1-42) peptide and 1 µL of test compound were gently mixed and then incubated in the dark at 37 °C for 48 h. After the incubation, 200 µL of 5 µM ThT (Sigma®, Saint Louis, MO, USA) in 50 mM Tris buffer (pH 7.4) was added to each well. Fluorescence was then measured at Ex = 446 nm and Em = 480 nm using a SpectraMax Gemini EM™, San Jose, CA, USA [26, 62]. Curcumin was used as a positive control, at a concentration of 100 µM.
# [1] = Antioxidant activity assay (DPPH); details: for Antioxidant %Inhibition (±SEM): at a concentration of 400 µM, mean ± SEM, n = 3
# Procedure: […] The reaction was a mixture of 70 µL of DPPH solution (500 µM in 80% methanol), 10 µL of 80% methanol, and 20 µL of test compound. The reaction was incubated at room temperature in the dark for 30 min. The absorbance was then measured at 517 nm using Infinite 200 Pro™ (Tecan). Ascorbic acid was used as a positive control.
# P19-derived neurons [2] = assay: Viability assay (XTT) on P19-derived neurons; assay type: cell-based; details: 18 h, nontoxic condition, versus 0.5% DMSO, derivatives at 1 nM
# Procedure: (§1) P19 cells were grown in alpha minimal essential medium (α-MEM) supplemented with 7.5% newborn calf serum (NCS), 2.5% fetal bovine serum (FBS), and 1% antibiotics–antimycotic solution in a 5% CO2 humidified atmosphere at 37 °C. Cells in monolayer cultures were maintained in exponential growth by subculturing every two days.
# (§2) Exponentially grown cultures were trypsinized and dissociated into single cells. P19 cells (2 × 10^6 cells/mL) were then suspended in 10 mL α-MEM supplemented with 5% FBS, 1% antibiotics–antimycotic solution, and 0.5 µM all transretinoic acid (RA) and seeded onto a 100-mm bacteriological culture dish. The cells formed large aggregates in suspension. After four days of RA treatment, the aggregates were dissociated by 5-mL glass measuring pipette and replated on poly-L-lysine-precoated multiwell plates (the multiwell plates were coated with 50 µg/mL poly-L-lysine, dissolved in PBS overnight, and sterilized under UV light for 30 min) at 7 × 10^4 cells/mL (150 µL/well in 96-well plate) in α-MEM supplemented with 10% FBS and 1% antibiotics–antimycotic solution and incubated for 24 h. Cytosine-1-β-D-arabinoside or Ara-C (10 µM) was added at day 1 after plating, and the medium was changed every two to three days. The differentiated neuronal cells, P19-derived neurons, were used after day 14 of the differentiation process.
# The assay was carried out on P19-derived neurons cultured in a 96-well plate. After 14 days of the differentiation process, the α-MEM, supplemented with 10% FBS, 10 μM Ara-C, and 1% antibiotics–antimycotic solution, was removed and DMSO solutions of the sample, diluted with α-MEM supplemented with 10% FBS and 1% antibiotics–antimycotic solution in the presence of 10 μM Ara-C, were added to produce the concentrations of 10,000, 1000, 100, 10, and 1 nM. A concentration of DMSO was added to the cultures at 0.5% v/v. […] The OD value was determined by using a microplate reader at 450 nm. Data were expressed as mean ± SEM (n = 3, each n was run in triplicate), with the medium as a control, representing 100% cell viability. […]
# COX-2 = COX-2 mRNA expression in LPS-activated RAW 264.7 (RT-qPCR); assay type: cell-based, murine; details: 10 and 100 nM, 1 h pretreatment before LPS, n = 3, p < 0.05
# Procedure: (§3) Cell lines that reached 80% confluence within 48 h were selected for further gene expression study. […] The experiment was conducted in triplicate. After the cell lines were treated with the testing samples for one hour, 2 μg/mL LPS (lipopolysaccharide; Sigma-Aldrich, St. Louis, MO, USA) was added to the cell lines and then maintained in an incubator for another 24 h to induce the cell inflammatory process. […] Total RNA quality and quantity were examined by NanoDrop. An equivalent of 2000 ng total RNA from each sample was then reverse-transcribed to produce first-strand complementary DNA (cDNA) using a Tetro cDNA Synthesis Kit (Bioline USA Inc., Memphis, TN, USA), according to the manufacturer's instruction. Briefly, the total RNA template was mixed with 4 μ[…] buffer, 1 μL oligo dT(18), 1 μL dNTP mix […], 1 μL Rnase inhibitor, and 1 μL reverse transcriptase. Diethylpyrocarbonate (DEPC)-treated water was then added to a mixture to adjust the volume to a final 20-μl reaction. An incubation process to produce first strand cDNA was carried out in a thermal cycler (SensoQuest Labcycler). Primer annealing and strand extending occurred at 45 °C for 30 min and a reverse transcriptase was finally heat-inactivated at 85 °C for 5 min. The corresponding cDNA products were then used as a template in a quantitative polymerase chain reaction (qPCR) to study COX-2 and iNOS gene expressions, with GAPDH as a reference gene. The primer sequences for qPCR quantifications were as follows: COX-2: [NT] (reverse); iNOS: [NT] (reverse), and GAPDH: [NT] (reverse). […] Then, 20 μL qPCR reaction was prepared by mixing a 1-μL cDNA template with 0.8 μL forward primer […], 0.8 μL reverse primer […], 10 μL SYBR, and 7.4 μL DI water. Gene expression was measured in a 96-well plate using a BIO-RAD iCycler IQ^TM5 detection system. qPCR reaction was initially heated to 95 °C 10 min, and then underwent 40 cycles of 95 °C 15 s and 60 °C 1 min. […] Each corresponding expression was computed as a relative fold change using the 2^-delta delta Ct method, normalized to the GAPDH gene.
# iNOS = iNOS mRNA expression in LPS-activated RAW 264.7 (RT-qPCR); assay type: cell-based, murine; details: 10 and 100 nM, 1 h pretreatment before LPS, n = 3, p < 0.05
# Procedure: as §3
# P19-derived neurons [3] = assay: Neuroprotective assay, serum-deprivation-induced oxidative stress (XTT); assay type: cell-based; details: 1 nM, p > 0.05
# Procedure: as §1
# as §2, with “Cytosine-1-β-D-arabinoside or Ara-C (10 µM) was added at day 1 after plating, and the medium was changed every two to three days. The differentiated neuronal cells, P19-derived neurons, were used after day 14 of the differentiation process.” left out
# The assay was carried out with P19-derived neurons cultured in a 96-well plate by using the serum-deprivation method. […] Data were expressed as mean ± SEM (n = 3, each n was run in triplicate), with the medium as a control, representing 100% cell viability. […]
# T2 sequence (P05067 672-713 limits assumed): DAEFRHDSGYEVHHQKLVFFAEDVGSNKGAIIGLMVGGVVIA
# T1 sequence (P56817 46-501): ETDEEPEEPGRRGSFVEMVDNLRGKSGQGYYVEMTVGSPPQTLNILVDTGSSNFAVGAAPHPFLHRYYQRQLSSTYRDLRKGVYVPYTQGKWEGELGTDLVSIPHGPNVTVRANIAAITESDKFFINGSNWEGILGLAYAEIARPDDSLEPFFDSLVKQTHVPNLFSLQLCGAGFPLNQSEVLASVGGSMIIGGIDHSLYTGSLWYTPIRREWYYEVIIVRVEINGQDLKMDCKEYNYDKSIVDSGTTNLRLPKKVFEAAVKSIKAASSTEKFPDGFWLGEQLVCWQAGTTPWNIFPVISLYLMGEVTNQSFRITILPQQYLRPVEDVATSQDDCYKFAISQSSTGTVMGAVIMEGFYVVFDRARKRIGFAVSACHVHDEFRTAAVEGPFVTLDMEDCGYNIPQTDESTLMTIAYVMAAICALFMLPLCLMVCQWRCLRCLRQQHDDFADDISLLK
IC50 (BACE1) [µM],inhibition at 400 µM (BACE1) [%],IC50 (amyloid-β (1-42) peptide) [µM],"inhibition at 400 µM (amyloid-β (1-42) peptide; mean ± SEM, n = 3) [%]",IC50 [1] [µM],melting point [°C],"inhibition at 100 µM (amyloid-β (1-42) peptide; positive control at 100 μM, mean ± SEM, n = 3) [%]",SMILES,Antioxidant %Inhibition (±SEM) [1] [%],cytotoxicity / cell viability of P19-derived neurons (P19-derived neurons [2]),expression of COX-2 gene compared to 0.001% DMSO control (COX-2),expression of iNOS gene compared to 0.001% DMSO control (iNOS),neuroprotective activity compared with quercetin (positive control) (P19-derived neurons [3])
593,27.3 ± 1.41,136,68.26 ± 0.67,62.9,144 to 146,–,"O=C1O[C@H]([C@@H](O)CO)C(OCc2cn(CC3Cc4c([nH]c5ccccc45)CN3)nn2)=C1O (stereo partly drawn) [Compound 5c, (R)-5-((S)-1,2-Dihydroxyethyl)-3-hydroxy-4-((1-((2,3,4,9-tetrahydro-1H-pyrido[3,4-b]indol-3-yl)methyl)-1H-1,2,3-triazol-4-yl)methoxy)furan-2(5H)-one]",85.84 ± 2.43,significantly higher viability than 0.5% DMSO,downregulate,downregulate,–
–,6.29 ± 0.98,319,51 ± 2.12,156,–,–,"COc1cc(Cn2cc(COC[C@H](O)[C@H]3OC(=O)C(O)=C3O)nn2)ccc1O [Compound 2b, (R)-3,4-Dihydroxy-5-((S)-1-hydroxy-2-((1-(4-hydroxy-3-methoxybenzyl)-1H-1,2,3-triazol-4-yl)methoxy)ethyl)furan-2(5H)-one]",62.81 ± 2.62,–,–,–,no statistical differences
–,–,–,–,–,–,94.5 ± 1.15,"COc1cc(/C=C/C(=O)CC(=O)/C=C/c2ccc(O)c(OC)c2)ccc1O [Curcumin, reference compound]",–,–,–,–,–
–,7.84 ± 1.75,146,63.4 ± 0.87,21.3,–,–,"O=C1O[C@H]([C@@H](O)CO)C(O)=C1O [Ascorbic acid, reference compound]",94.85 ± 0.62,decreased,downregulate,downregulate,–
726,23.5 ± 1.66,92.3,71.8 ± 1.42,72.3,172 to 174,–,"O=C1O[C@H]([C@@H](O)COCc2cn(CC3Cc4c([nH]c5ccccc45)CN3)nn2)C(O)=C1O (stereo partly drawn) [Compound 2c, (R)-3,4-Dihydroxy-5-((S)-1-hydroxy-2-((1-((2,3,4,9-tetrahydro-1H-pyrido[3,4-b]indol-3-yl)-methyl)-1H-1,2,3-triazol-4-yl)methoxy)ethyl)furan-2(5H)-one]",94.67 ± 0.50,–,downregulate,downregulate,–
–,6.8 ± 2.69,319,53 ± 0.6,206,–,–,"O=C1O[C@H]([C@@H](O)COCc2cn(Cc3ccc(O)cc3)nn2)C(O)=C1O [Compound 2a, (R)-3,4-Dihydroxy-5-((S)-1-hydroxy-2-((1-(4-hydroxybenzyl)-1H-1,2,3-triazol-4-yl)metho-xy)ethyl)furan-2(5H)-one]",66.54 ± 0.56,significantly higher viability than 0.5% DMSO,–,–,no statistical differences
–,–,–,34.5 ± 3.62,91.2,–,–,"O=C1O[C@H]([C@@H](O)CO)C(OCc2cn(Cc3ccc(O)cc3)nn2)=C1O [Compound 5a, (R)-5-((S)-1,2-Dihydroxyethyl)-3-hydroxy-4-((1-(4-hydroxybenzyl)-1H-1,2,3-triazol-4-yl)-methoxy)furan-2(5H)-one]",78.42 ± 0.93,–,–,–,–
–,–,–,19.6 ± 1.83,103,–,–,"COc1cc(Cn2cc(COC3=C(O)C(=O)O[C@@H]3[C@@H](O)CO)nn2)ccc1O [Compound 5b, (R)-5-((S)-1,2-Dihydroxyethyl)-3-hydroxy-4-((1-(4-hydroxy-3-methoxybenzyl)-1H-1,2,3-triazol-4-yl)methoxy)furan-2(5H)-one]",77.37 ± 1.60,–,–,–,–
